According to ChEMBL document CHEMBL4507259 (2021):

Key:
[1] = target: T1, Alpha-1A adrenergic receptor (Homo sapiens) (UniProt P35348); experiment: alpha 1A (h) CEREP ligand profiling; conditions: filed as antagonist, Compound concentration 10.0 uM
T1 sequence (whole entry): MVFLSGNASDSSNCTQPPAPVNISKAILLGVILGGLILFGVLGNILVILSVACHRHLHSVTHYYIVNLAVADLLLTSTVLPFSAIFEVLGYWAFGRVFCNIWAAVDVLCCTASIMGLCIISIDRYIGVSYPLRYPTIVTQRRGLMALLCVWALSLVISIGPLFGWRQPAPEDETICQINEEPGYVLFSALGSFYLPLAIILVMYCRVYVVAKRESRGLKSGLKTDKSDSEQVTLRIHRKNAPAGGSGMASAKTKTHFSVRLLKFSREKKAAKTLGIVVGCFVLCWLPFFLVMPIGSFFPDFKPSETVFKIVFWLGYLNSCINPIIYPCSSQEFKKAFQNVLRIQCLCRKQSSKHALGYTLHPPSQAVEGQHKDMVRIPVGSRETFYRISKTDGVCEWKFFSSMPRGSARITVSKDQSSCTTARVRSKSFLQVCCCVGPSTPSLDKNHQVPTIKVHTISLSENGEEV

[2] = target: Substance-P receptor (Homo sapiens) (UniProt P25103); experiment: NK1 (h) CEREP ligand profiling; conditions: filed as agonist, Compound concentration 10.0 uM
[3] = target: Vasopressin V1a receptor (Homo sapiens) (UniProt P37288); experiment: V1a (h) CEREP ligand profiling; conditions: filed as agonist, Compound concentration 10.0 uM
Vasopressin V1a receptor (Homo sapiens), sequence (P37288 whole entry, looked up): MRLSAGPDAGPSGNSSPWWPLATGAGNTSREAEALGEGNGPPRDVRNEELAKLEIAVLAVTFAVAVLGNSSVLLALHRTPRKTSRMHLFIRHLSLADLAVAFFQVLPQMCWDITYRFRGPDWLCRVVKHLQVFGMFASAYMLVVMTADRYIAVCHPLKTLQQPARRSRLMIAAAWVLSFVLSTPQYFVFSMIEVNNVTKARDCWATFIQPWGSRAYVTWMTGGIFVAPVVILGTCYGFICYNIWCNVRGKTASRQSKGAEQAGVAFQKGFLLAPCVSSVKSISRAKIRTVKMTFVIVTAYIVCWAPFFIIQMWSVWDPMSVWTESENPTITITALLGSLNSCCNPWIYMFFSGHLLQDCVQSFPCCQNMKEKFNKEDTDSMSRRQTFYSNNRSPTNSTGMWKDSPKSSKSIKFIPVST

[4] = target: T2, Muscarinic acetylcholine receptor M5 (Homo sapiens) (UniProt P08912); experiment: M5 (h) CEREP ligand profiling; conditions: filed as antagonist, Compound concentration 10.0 uM
T2 sequence (whole entry): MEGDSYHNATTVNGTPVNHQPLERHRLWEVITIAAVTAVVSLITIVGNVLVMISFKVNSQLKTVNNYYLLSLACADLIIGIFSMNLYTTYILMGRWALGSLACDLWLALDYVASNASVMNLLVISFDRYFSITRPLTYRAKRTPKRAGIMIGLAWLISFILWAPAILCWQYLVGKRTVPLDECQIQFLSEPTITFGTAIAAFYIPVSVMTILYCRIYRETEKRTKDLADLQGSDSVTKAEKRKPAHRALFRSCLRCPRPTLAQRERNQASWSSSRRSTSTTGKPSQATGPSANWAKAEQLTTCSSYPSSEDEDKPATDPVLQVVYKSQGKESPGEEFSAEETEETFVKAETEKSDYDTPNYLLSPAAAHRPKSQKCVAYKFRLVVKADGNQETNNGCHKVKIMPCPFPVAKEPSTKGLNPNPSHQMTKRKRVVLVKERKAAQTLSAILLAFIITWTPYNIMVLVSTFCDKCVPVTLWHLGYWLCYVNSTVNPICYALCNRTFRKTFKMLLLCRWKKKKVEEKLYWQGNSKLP

[5] = target: T3, 5-hydroxytryptamine receptor 3A (Homo sapiens) (UniProt P46098); experiment: 5-HT3 (h) CEREP ligand profiling; conditions: filed as antagonist, Compound concentration 10.0 uM
T3 sequence (whole entry): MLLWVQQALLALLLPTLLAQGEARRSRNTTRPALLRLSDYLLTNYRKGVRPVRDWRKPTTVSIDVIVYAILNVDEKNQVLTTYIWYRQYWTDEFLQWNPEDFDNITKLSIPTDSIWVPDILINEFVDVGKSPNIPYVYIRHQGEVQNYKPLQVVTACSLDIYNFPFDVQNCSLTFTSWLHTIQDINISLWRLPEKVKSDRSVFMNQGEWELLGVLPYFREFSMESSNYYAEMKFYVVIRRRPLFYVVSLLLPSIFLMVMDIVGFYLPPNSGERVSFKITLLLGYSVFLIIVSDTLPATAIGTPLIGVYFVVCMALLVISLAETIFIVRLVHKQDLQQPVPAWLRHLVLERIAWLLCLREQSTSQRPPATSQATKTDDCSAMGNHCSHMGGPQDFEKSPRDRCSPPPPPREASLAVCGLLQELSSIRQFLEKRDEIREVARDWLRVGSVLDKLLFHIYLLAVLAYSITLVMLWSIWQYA

[6] = target: 5'-AMP-activated protein kinase catalytic subunit alpha-1 (Homo sapiens) (UniProt Q13131); conditions: Compound concentration 1000.0 nM
5'-AMP-activated protein kinase catalytic subunit alpha-1 (Homo sapiens), sequence (Q13131 whole entry, looked up): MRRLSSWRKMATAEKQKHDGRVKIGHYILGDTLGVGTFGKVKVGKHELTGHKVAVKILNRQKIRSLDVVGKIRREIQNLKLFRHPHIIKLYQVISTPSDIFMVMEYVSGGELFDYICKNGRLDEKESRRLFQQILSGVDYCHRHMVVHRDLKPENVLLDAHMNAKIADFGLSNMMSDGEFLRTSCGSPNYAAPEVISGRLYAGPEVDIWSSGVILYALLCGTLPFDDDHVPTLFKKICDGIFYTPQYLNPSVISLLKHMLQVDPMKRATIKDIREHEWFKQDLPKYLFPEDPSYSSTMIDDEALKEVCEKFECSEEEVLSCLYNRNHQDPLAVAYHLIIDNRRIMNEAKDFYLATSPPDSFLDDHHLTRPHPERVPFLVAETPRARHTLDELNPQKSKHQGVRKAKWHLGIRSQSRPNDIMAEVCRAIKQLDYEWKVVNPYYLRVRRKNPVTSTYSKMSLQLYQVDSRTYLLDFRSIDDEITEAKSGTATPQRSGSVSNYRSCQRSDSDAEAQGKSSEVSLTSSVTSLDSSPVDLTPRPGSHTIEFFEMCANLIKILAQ

[7] = test system: Serine/threonine-protein kinase B-raf (Homo sapiens), P15056 [V600E]; conditions: Compound concentration 1000.0 nM
[8] = target: Cyclin-dependent kinase 8 (Homo sapiens) (UniProt P49336); conditions: Compound concentration 1000.0 nM
[9] = target: Macrophage colony-stimulating factor 1 receptor (Homo sapiens) (UniProt P07333); conditions: Compound concentration 1000.0 nM
Macrophage colony-stimulating factor 1 receptor (Homo sapiens), sequence (P07333 whole entry): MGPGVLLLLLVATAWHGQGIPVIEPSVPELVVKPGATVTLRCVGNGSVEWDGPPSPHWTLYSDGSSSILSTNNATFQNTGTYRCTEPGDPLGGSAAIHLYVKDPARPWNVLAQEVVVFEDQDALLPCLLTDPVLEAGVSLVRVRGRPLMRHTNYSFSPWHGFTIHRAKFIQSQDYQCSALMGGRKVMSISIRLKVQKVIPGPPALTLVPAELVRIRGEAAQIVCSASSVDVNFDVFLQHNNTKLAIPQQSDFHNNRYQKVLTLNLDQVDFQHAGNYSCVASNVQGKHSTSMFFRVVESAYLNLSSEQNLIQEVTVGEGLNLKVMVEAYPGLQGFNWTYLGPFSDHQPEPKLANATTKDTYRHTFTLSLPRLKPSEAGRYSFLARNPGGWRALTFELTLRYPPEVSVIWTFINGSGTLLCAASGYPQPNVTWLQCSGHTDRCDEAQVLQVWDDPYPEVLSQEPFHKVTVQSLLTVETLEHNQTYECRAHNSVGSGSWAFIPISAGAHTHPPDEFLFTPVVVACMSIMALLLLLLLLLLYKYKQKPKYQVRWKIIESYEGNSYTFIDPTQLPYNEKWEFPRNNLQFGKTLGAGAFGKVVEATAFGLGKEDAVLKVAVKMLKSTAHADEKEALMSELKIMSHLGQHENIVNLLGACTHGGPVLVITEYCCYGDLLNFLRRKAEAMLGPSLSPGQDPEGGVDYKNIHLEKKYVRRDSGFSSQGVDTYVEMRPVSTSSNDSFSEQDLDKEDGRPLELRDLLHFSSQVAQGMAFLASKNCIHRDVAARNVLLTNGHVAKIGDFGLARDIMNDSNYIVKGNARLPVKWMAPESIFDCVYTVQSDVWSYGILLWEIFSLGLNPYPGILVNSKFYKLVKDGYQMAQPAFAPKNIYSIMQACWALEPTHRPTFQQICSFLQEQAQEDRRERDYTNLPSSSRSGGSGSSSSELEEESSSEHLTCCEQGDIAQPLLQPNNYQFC

[10] = target: Serine/threonine-protein kinase 17B (Homo sapiens) (UniProt O94768); conditions: Compound concentration 1000.0 nM
Serine/threonine-protein kinase 17B (Homo sapiens), sequence (O94768 whole entry): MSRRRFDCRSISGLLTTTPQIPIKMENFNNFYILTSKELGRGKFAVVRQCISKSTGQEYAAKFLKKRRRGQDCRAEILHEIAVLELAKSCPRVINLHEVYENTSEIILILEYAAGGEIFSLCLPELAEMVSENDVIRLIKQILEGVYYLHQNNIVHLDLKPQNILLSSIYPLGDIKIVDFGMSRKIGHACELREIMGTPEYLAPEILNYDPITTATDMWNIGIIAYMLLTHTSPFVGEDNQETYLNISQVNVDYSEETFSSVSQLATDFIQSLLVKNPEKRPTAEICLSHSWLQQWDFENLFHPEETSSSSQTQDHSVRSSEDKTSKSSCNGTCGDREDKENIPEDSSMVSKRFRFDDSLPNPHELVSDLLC

[11] = target: Ephrin type-A receptor 2 (Homo sapiens) (UniProt P29317); conditions: Compound concentration 1000.0 nM
[12] = test system: Receptor-type tyrosine-protein kinase FLT3 (Homo sapiens), P36888 [UNDEFINED MUTATION]; conditions: Compound concentration 1000.0 nM
Receptor-type tyrosine-protein kinase FLT3 (Homo sapiens), P36888 [UNDEFINED MUTATION], sequence (P36888 whole entry, looked up, stated change not applied): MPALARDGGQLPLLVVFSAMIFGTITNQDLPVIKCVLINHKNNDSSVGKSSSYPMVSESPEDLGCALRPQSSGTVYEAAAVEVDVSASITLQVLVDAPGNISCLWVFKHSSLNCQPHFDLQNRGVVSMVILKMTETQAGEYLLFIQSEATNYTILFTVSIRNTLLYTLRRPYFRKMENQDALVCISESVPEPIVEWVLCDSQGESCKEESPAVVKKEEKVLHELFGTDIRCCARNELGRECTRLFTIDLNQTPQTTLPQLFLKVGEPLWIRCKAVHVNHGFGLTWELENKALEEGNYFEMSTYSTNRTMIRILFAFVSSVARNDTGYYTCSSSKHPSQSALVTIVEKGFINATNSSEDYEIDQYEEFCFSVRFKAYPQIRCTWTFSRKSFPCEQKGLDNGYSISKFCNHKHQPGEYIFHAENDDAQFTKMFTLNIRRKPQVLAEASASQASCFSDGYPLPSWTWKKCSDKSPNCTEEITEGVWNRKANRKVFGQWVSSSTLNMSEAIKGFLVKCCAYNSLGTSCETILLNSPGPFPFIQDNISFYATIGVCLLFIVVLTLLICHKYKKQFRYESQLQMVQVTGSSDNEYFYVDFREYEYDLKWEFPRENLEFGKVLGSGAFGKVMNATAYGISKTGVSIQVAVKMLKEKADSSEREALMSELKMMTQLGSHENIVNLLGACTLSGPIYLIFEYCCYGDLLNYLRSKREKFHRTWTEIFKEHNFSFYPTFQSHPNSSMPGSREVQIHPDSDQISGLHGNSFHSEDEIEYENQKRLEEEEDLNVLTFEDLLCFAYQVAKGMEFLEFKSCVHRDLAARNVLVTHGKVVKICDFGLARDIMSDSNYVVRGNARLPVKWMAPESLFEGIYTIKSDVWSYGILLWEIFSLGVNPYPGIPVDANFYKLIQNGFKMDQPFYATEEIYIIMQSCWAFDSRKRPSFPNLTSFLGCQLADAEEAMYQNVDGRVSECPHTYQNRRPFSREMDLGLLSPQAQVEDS

[13] = target: Insulin receptor (Homo sapiens) (UniProt P06213); conditions: Compound concentration 1000.0 nM
[14] = target: Serine/threonine-protein kinase Nek3 (Homo sapiens) (UniProt P51956); conditions: Compound concentration 1000.0 nM
[15] = target: Mitogen-activated protein kinase kinase kinase 14 (Homo sapiens) (UniProt Q99558); conditions: Compound concentration 1000.0 nM
Mitogen-activated protein kinase kinase kinase 14 (Homo sapiens), sequence (Q99558 whole entry, looked up): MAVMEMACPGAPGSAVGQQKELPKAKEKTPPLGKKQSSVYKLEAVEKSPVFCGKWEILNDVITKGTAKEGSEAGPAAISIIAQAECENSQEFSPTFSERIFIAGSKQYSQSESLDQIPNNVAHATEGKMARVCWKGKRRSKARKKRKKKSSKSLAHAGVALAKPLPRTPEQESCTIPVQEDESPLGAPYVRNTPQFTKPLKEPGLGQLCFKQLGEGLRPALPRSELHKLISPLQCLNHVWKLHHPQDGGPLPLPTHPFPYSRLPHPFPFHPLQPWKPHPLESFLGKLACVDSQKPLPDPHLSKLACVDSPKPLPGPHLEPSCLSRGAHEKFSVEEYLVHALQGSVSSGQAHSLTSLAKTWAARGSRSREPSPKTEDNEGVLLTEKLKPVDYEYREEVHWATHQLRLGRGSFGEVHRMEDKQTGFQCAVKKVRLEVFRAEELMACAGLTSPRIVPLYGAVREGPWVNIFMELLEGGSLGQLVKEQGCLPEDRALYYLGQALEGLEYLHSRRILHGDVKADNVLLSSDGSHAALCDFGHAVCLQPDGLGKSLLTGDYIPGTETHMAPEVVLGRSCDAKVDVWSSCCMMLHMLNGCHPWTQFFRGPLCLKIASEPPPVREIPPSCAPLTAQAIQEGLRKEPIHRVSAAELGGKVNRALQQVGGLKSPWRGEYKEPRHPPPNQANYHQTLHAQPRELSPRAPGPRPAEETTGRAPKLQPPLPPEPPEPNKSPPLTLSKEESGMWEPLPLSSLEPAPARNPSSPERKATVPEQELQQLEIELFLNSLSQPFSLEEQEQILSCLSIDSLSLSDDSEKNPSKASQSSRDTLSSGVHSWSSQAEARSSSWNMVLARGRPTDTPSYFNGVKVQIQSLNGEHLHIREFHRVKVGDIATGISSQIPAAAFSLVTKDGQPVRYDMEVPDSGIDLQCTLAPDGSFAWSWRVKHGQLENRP

[16] = target: Protein kinase C eta type (Homo sapiens) (UniProt P24723); conditions: Compound concentration 1000.0 nM
[17] = target: RAF proto-oncogene serine/threonine-protein kinase (Homo sapiens) (UniProt P04049); conditions: Compound concentration 1000.0 nM
[18] = target: Serine/threonine-protein kinase Sgk1 (Homo sapiens) (UniProt O00141); conditions: Compound concentration 1000.0 nM
[19] = target: Serine/threonine-protein kinase 35 (Homo sapiens) (UniProt Q8TDR2); conditions: Compound concentration 1000.0 nM
Serine/threonine-protein kinase 35 (Homo sapiens), sequence (Q8TDR2 whole entry): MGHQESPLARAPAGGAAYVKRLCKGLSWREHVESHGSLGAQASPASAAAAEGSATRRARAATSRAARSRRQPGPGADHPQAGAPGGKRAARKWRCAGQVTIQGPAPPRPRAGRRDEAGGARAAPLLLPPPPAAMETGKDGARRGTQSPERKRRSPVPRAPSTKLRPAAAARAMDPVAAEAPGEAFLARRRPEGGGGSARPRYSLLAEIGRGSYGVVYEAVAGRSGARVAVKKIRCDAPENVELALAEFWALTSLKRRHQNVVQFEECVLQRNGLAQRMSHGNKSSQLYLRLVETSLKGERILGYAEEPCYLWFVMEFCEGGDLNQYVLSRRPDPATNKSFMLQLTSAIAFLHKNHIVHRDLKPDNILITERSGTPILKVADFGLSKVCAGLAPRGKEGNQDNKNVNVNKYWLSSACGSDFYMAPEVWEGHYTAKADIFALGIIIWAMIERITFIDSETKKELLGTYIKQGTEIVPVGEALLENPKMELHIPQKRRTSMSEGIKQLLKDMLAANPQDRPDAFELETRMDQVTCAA

CNC(=O)Nc1ccc2c(c1)[C@@]1(CC2)OC(=O)N(CC(=O)N(Cc2ccc(F)cc2)[C@@H](C)C(F)(F)F)C1=O [A-486]
inactive: inhibition [1] 16% | inhibition [2] 12% | inhibition [3] 23% | inhibition [4] -8% | inhibition [5] 4% | residual activity [6] 91% | residual activity [7] 96% | residual activity [8] 96% | residual activity [9] 98% | residual activity [10] 77% | residual activity [11] 100% | residual activity [12] 87% | residual activity [13] 73% | residual activity [14] 69% | residual activity [15] 68% | residual activity [16] 87% | residual activity [17] 100% | residual activity [18] 54% | residual activity [19] 85%

CNC(=O)Nc1ccc2c(c1)CC[C@@]21OC(=O)N(CC(=O)N(Cc2ccc(F)cc2)[C@@H](C)C(F)(F)F)C1=O [A-485]
inactive: inhibition [1] 29% | inhibition [2] 21% | inhibition [3] 10% | inhibition [4] 8% | inhibition [5] 0% | residual activity [6] 100% | residual activity [7] 100% | residual activity [8] 100% | residual activity [9] 99% | residual activity [10] 100% | residual activity [11] 76% | residual activity [12] 87% | residual activity [13] 81% | residual activity [14] 58% | residual activity [15] 67% | residual activity [16] 93% | residual activity [17] 100% | residual activity [18] 63% | residual activity [19] 89%
